Experimental data as given in US6239182A, “Method for preventing sexually transmitted diseases” (priority 1999, dated 2001).

Tests used:
[1] = test system: vaginal/cervical epithelial and other cells; settings: background statement; cited from earlier work
MT2 cells = experiment: cytotoxicity towards host cells in the viral-binding inhibition assay; assay type: cell-based; settings: at the concentration ranges used in the viral-binding inhibition assay
Description: Serial dilutions of the test compounds (ranging from 0.1 μg/ml to 1.0 mg/ml) were added to HIV-1 virus such that 50 μl inoculum produced between 70 to 100 syncytia per well in untreated wells containing MT2 cells. The HIV-1 used was strain IIIs propagated in, and harvested from, a T4-lymphobastoid cell line. Each serial dilution of the test compound with virus was placed in each of three wells containing MT2 cells. The test compound alone was added to a fourth well containing MT2 cells to test for possible cytotoxicity. Triplicate virus control samples (no added test compounds but containing the equivalent amounts of the RPMI medium) were also included.

[2] = test system: sheep testicular hyaluronidase; experiment: hyaluronidase inhibition (hyaluronic acid hydrolysis); assay type: biochemical; settings: pH 5.5, 10 minutes preincubation; inactive = no inhibition at 1 mg/ml
Description: Hyaluronidase activity was quantitatively determined by measuring the extent of hyaluronic acid hydrolysis (i.e., the concentration of N-acetylglucosamine-reactive material formed from enzyme activity). Reaction mixtures (0.25 ml) containing the following were prepared: test compound (variable concentration); 0.1 M sodium acetate; 0.15 M sodium chloride; pH adjusted to 5.5; 7.2 units sheep testicular hyaluronidase (Sigma, Type III; H-2251) contained in an acetate buffer; 0.3 mg/ml hyaluronic acid (Sigma, from bovine vitreous humor; H-7630). The enzyme was preincubated with the test agent (1 mg/ml for screening purposes) for 10 minutes before starting the reaction by the addition of hyaluronic acid. The enzyme reaction was determined using the method of Aronson and Davidson (J. Biol. Chem. 241 437-440 (1967)). The reaction mixture was incubated for 30 minutes at room temperature.
The reversibility of the hyaluronidase was determined by evaluating enzyme activity at different levels of enzyme (Ackermann and Potter, Proc. Soc. Exp. Biol. Med. 72 1-9 (1949)).

HIV-1 = settings: comparison statement, no data given; cited from earlier work
Lactobacillus gasseri = experiment: effect on normal vaginal flora (Lactobacillus growth in culture); assay type: cell-based; settings: at 0.5 mg/ml
Description: This example illustrates the effect of the inhibitory agents of this invention on the normal vaginal flora. Lactobacillus gasseri, which is found in normal vaginal flora, was obtained from the American Type Culture Collection (Rockville, Md.) and cultured under anaerobic conditions at 37° C. in the presence of the desired test agents. Control samples without added test agents were also run. Samples were collected at twenty minute intervals starting at 120 minutes after the start of incubation through 240 minutes. The absorbance at 550 nm was used to estimate the cell density and inhibitory effects. Nonoxynol-9 was also evaluated for comparison purposes.

Nonoxynol-9
lowest concentration that can injure vaginal/cervical epithelial and other cells [1]: about 0.0005%
toxicity towards the host cells (MT2) (MT2 cells): did show cytotoxic effects
IC50 (hyaluronidase) [2]: inactive
inhibition of the enveloped virus HIV (in words) (HIV-1): inhibits
inhibition of Lactobacillus gasseri growth (Lactobacillus gasseri): about 60%
